From patent publication US6881751B2, “Medicament containing platinum complex compounds and the use thereof” (Ruprecht Karls Universitat, priority 1998, dated 2005)

Experiments:
[1] = Body weight of the xenotransplant group suffering from parvocellular pulmonary carcinoma; assay type: in vivo, Nu/Nu-Swiss mice
Protocol: The tumor sizes were determined in two directions and the relative tumor growth was calculated.
(C): Average body weights of the group suffering from parvocellular pulmonary carcinoma. The standard deviations were less than 3%.

[2] = tested on: Bronchial carcinoma cells (SCLC); test: Anti-tumoral effect on a human parvocellular bronchial carcinoma in naked mice; assay type: in vivo, Nu/Nu mice, strain NMRI; conditions: 10 mg/kg intravenously, SCLC tumors about 8 mm, FIG. 1
Protocol: a) Anti-Tumoral Effect on a Human Parvocellular Bronchial Carcinoma in Naked Mice
Bronchial carcinoma cells (SCLC) were implanted under the skin of six-week-old Nu/Nu mice, strain NMRI (5×10^6 cells in 0.1 ml common salt solution). The tumors had reached a size of about 8 mm after two weeks. Then, five animals each were treated intravenously with either 0.2 ml common salt solution/[…]/1% acetone (control group) or with 10 mg/kg compound according to Example 1 in common salt solution/1% BSA/1% acetone (treated group). The tumor growth was controlled daily. The values are shown in enclosed FIG. 1.

[3] = tested on: HeLa cells; test: pH dependence of the effectiveness of cytostatic agents (live cell count, trypan blue); assay type: cell-based, Human; conditions: pH 7.4 vs pH 6.8, 24 hours, FIG. 3
Protocol: The number of live cells was determined after vital staining using trypan blue in Neubauer's counting chamber.

[4] = tested on: Colon carcinoma cells (SW707); test: Anti-tumoral effect on a human colon carcinoma in naked mice; assay type: in vivo, Nu/Nu mice, strain NMRI; conditions: SW707 tumors about 10 mm, FIG. 2
Source text: b) Anti-Tumoral Effect of a Compound According to Example 1 on a Human Colon Carcinoma in Naked Mice Colon carcinoma cells (SW707) were implanted under the skin of 6-week-old Nu/Nu mice, strain NMRI (5×10^6 cells in common salt solution).

[5] = tested on: SW707 cells of a colorectal carcinoma; test: Antitumoral effect on human xenotransplants, SW707; assay type: in vivo, Nu/Nu-Swiss mice; conditions: single i.p. injection 10 mg/kg, FIG. 4B
[6] = tested on: cell lines; test: Dependence of the cytotoxicity on the pH value, all cell lines of the table; assay type: cell-based; conditions: pH 6.8 vs pH 7.4, cell lines of the table
Protocol: Cells were plated in Linbro dishes or plates and, after 4 hours, the cells were fed with a medium which included either 2.2 g/l (pH 7.4) or 0.85 g/l (pH 6.8) NaHCO3.

[7] = tested on: Human H10 cells of a parvocellular bronchial carcinoma; test: Antitumoral effect on human xenotransplants, H10; assay type: in vivo, Nu/Nu-Swiss mice; conditions: single i.p. injection 10 mg/kg, FIG. 4A

Row | SMILES | weight loss ([1]; mouse, in vivo, ip, 10 mg/kg) | tumor size [2] | pH dependence of effectiveness [3] | tumor growth ([4]; 7.5 mg/kg intravenously (treated group I)) | effect on tumor growth [5] | weight loss ([1]; day 3 after the treatment, 10 mg/kg i.p., FIG. 4C) | weight loss ([1]; day 6 after the treatment, 10 mg/kg i.p., FIG. 4C) | tumor growth ([4]; 10 mg/kg intravenously (treated group II)) | pH effect on IC50 [6] | tumor size as compared to the control group [7]
1 | CCOC1=[S+][Pt-2]2([S]1)[S]C(OCC)=[S+]2 [Example 1, bis-[O-ethyldithiocarbanato]Platinum (II)] | no weight loss | decreased in size | effective maximum in the slightly acidic range | tumor growth was slowed down | tumor growth could be prevented |  |  |  |  | 
2 | N.N.[Cl][Pt][Cl] [cisplatin] |  |  | better effects in the alkaline range |  | no effect | 12% | 13% | constant tumor growth | poorer with pH 6.8 than with pH 7.4 or there was no detectable pH effect | 50%
